The values below come from the supplement of paper PMC10307832.

Holding throughout (test): relative viability (nuclei count vs DMSO), 5 days (fraction); higher = more cells survive
Compound in the assay “Serdemetan + Bortezomib”: c1ccc2c(CCNc3ccc(Nc4ccncc4)cc3)c[nH]c2c1 [Serdemetan] + CC(C)C[C@H](NC(=O)[C@H](Cc1ccccc1)NC(=O)c1cnccn1)B(O)O [Bortezomib] (partner 0.002 µM)
Put shortly:
(§1)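 Relative viability equals treated-well nuclei counts divided by vehicle-well nuclei counts. Counts came from 4× images of lung cancer cell lines grown in 1536-well plates for 5 days after pin-tool dosing on the day after seeding. Dosing used one drug alone or a fixed anchor-drug dose plus five library-drug doses (not always all listed) in √10 steps, and values are medians of duplicate plates.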

Compound in the assay “Serdemetan + Pemetrexed”: c1ccc2c(CCNc3ccc(Nc4ccncc4)cc3)c[nH]c2c1 [Serdemetan] + Nc1nc2[nH]cc(CCc3ccc(C(=O)N[C@@H](CCC(=O)O)C(=O)O)cc3)c2c(=O)[nH]1 [Pemetrexed] (partner 0.2 µM)
The method, boiled down: as §1

Compound in the assay “Selisistat + Trametinib”: C1CC(C2=C(C1)C3=C(N2)C=CC(=C3)Cl)C(=O)N [Selisistat] + CC(=O)Nc1cccc(-n2c(=O)n(C3CC3)c(=O)c3c(Nc4ccc(I)cc4F)n(C)c(=O)c(C)c32)c1 [Trametinib] (partner 0.02 µM)
The method, boiled down: as §1

Compound in the assay “Serdemetan + Luminespib”: c1ccc2c(CCNc3ccc(Nc4ccncc4)cc3)c[nH]c2c1 [Serdemetan] + CCNC(=O)c1noc(-c2cc(C(C)C)c(O)cc2O)c1-c1ccc(CN2CCOCC2)cc1 [Luminespib] (partner 0.01 µM)
The method, boiled down: as §1

UMC-11: the relative viability in the assay with Serdemetan + Bortezomib (first compound 0.04 µM) stood at 0.614; with Serdemetan + Bortezomib (first compound 0.1265 µM), 0.666; with Serdemetan + Bortezomib (first compound 0.4 µM), 0.668; with Serdemetan + Bortezomib (first compound 1.265 µM), 0.53; in the assay with Serdemetan + Bortezomib (first compound 4 µM) it was 0.839; with Serdemetan + Pemetrexed (first compound 0.04 µM), 0.776. Also, the relative viability with Serdemetan + Pemetrexed (first compound 0.1265 µM) amounted to 0.718; with Serdemetan + Pemetrexed (first compound 0.4 µM), 0.689; in the assay with Serdemetan + Pemetrexed (first compound 1.265 µM), 0.666; with Serdemetan + Pemetrexed (first compound 4 µM), 0.586; in the assay with Selisistat + Trametinib (first compound 0.4 µM), 0.575; with Selisistat + Trametinib (first compound 1.265 µM), 0.653. Besides, the relative viability with Selisistat + Trametinib (first compound 4 µM) was 0.596; with Selisistat + Trametinib (first compound 12.65 µM), 0.742; with Selisistat + Trametinib (first compound 40 µM), 0.717; with Serdemetan + Luminespib (first compound 0.04 µM) it was 0.938; with Serdemetan + Luminespib (first compound 0.1265 µM), 1.01; with Serdemetan + Luminespib (first compound 4 µM) it was 0.852.
